From patent US10933091B1, “Composition and method for the treatment of type I diabetes” (Vector Vitale IP LLC, priority 2019, dated 2021)

Columns and labels:
[1] = Intraperitoneal administration to intact rats: accumulation of metals in liver and kidney tissues; conditions: day 1 and day 7 after discontinuation, in words
Description: The administration of these compositions was by intraperitoneal route.
Animals are placed in cages, 4 per cage, with free access to food/water. […] Administration is performed every other day, in the amount of 7 injections per animal (intraperitoneal method of drug administration). The dose of the drug injected to each animal was calculated on the basis of the ratio: 3750 μg of zinc per 1 kg of animal body weight. After the last injection, a half of the animals are maintained on hunger (for 12 hours) with free access to water. Upon expiration of this time period, the animals are taken out of the experiment. The second half of the animals continues to have free access to food/water for a further 7 days. On day 6 after the last injection, the animals are maintained on hunger (for 12 hours) with free access to water. Upon expiration of this time period, the animals are taken out of the experiment.
The total kidney, liver and muscle homogenates were prepared as follows. Organ excision and homogenization were carried out at a temperature of 1-4° C. Homogenization of tissues was carried out in 50 mM Tris-HCl buffer (pH 7.4) which contained 140 mM NaCl, 1 mM EDTA. The volume of the used buffer in ml was 5 times larger than the mass of isolated organs in grams. The isolated liver was perfused with chilled saline (0.9% NaCl) via the portal vein using a syringe. […]

[2] = Serum biochemistry (albumin, triglycerides, cholesterol, free fatty acids), diet-induced obesity study; conditions: DIO rats (high-fat diet), week 10
Description: The levels of serum albumin in the animals were determined spectrophotometrically using a Microlab 300 biochemistry analyzer and standard PLIVA-Lachema Diagnostika test kits (Czech Republic).

[3] = Levels of divalent metal ions in muscles, kidneys and liver, diet-induced obesity study; conditions: DIO rats (high-fat diet)
[4] = test system: peripheral serotonergic system (duodenum); assay: Indicators of the peripheral serotonergic system (duodenum); assay type: in vivo, rats
From the text: (§1) The tissue: buffer ratio was 1:10.
(§2) The samples were reprecipitated by centrifugation.
(§3) University. Medicine.-2000.-1, No. 494.-P. 40-43.
(§4) The supernatant was used in further studies.

alkaline phosphatase = conditions: serum; DIO rats (high-fat diet), week 10
Description: To this end, high-fat diet obesity was induced in experimental animals as described in Example 2.
Serum alkaline phosphatase activity in the animals was measured spectrophotometrically using a Microlab 300 biochemical analyzer and standard PLIVA-Lachema Diagnostika test kits (Czech Republic).
As a result of hydrolytic cleavage of p-nitrophenyl phosphate catalyzed by alkaline phosphatase, p-nitrophenol is formed, which gives an intense yellow color in alkaline medium. The optical density of samples was measured at a wavelength of 405 nm. The alkaline phosphatase activity was expressed in relative units.

[5] = test system: central serotonergic system (brain); assay: Indicators of the central serotonergic system (brain); assay type: in vivo, rats
From the text: as §1, §2, §3, §4

[6] = test system: tryptophan, serotonin, monoamine oxidase; assay: Serum tryptophan, serotonin and monoamine oxidase activity; assay type: in vivo, rats
From the text: as §2, §3

Structure (SMILES): CC(=O)[O-].CC(=O)[O-].[Zn+2] [Zn acetate, Zinc acetate, reference compound]
- zinc level in kidney and liver tissues [1]: significantly increased

Structure (SMILES): N[C@@H](CC(=O)[O-])C(=O)[O-].[Zn+2] [^64Zne, zinc aspartate]
- Albumin levels [2]: 166.2 ± 15.8 RU
- Cholesterol [2]: 2.83 ± 0.23 mmol/L
- Free fatty acids [2]: 31.62 ± 7.92 mg/L
- Triglycerides [2]: 2.79 ± 0.30 g/L
- Zinc level ([3]; kidneys): 20.28 ± 1.75 μg/ tissue
- Zinc level ([3]; liver): 31.43 ± 1.78 μg/ tissue
- Zinc level ([3]; muscles): 9.10 ± 0.42 μg/ tissue
- Serotonin ([4]; DIO rats (high-fat diet)): 9.73 µg/g
- Tryptophan ([4]; DIO rats (high-fat diet)): 89.4 µg/g
- Serotonin ([4]; control rats (standard diet)): 7.41 ± 0.54 µg/g
- Tryptophan ([4]; control rats (standard diet)): 154.7 ± 13.6 µg/g
- Alkaline phosphatase activity (alkaline phosphatase): 87.6 ± 18.7 RU
- Serotonin ([5]; DIO rats (high-fat diet)): 20.1 µg/g
- Tryptophan ([5]; DIO rats (high-fat diet)): 31.56 µg/g
- Serotonin ([5]; control rats (standard diet)): 25.51 ± 2.71 µg/g
- Tryptophan ([5]; control rats (standard diet)): 87.71 ± 3.41 µg/g
- Serotonin ([6]; DIO rats (high-fat diet)): 6.33 ± 0.51 µg/g
- Tryptophan ([6]; DIO rats (high-fat diet)): 66.65 ± 9.62 µg/g
- Serotonin ([6]; control rats (standard diet)): 10.16 ± 0.62 µg/g
- Tryptophan ([6]; control rats (standard diet)): 56.12 ± 7.58 µg/g
- zinc level in kidney and liver tissues [1]: significantly increased
